Results on three compounds are retold here after paper PMC5116409 (Nanomedicine : nanotechnology, biology, and medicine, 2016).

Series [1] deals with T1, HIV-1 reverse transcriptase Wild type (Human immunodeficiency virus type 1 group M subtype B, UniProt P03366). Description: biochemical. As to conditions: RNA-dependent DNA polymerization, IC50, Wild type RT; From DMSO stock solution.
Series [2] deals with T2, HIV-1 reverse transcriptase L100I (Human immunodeficiency virus type 1 group M subtype B, UniProt P03366, L699I). Description: RNA-dependent DNA polymerization by recombinant HIV-1 RT. Format: biochemical.
Series [3] has as its target T3, HIV-1 reverse transcriptase K103N (Human immunodeficiency virus type 1 group M subtype B, UniProt P03366, K702N). Described as above. Format: biochemical.
For series [4], the target named is T4, HIV-1 reverse transcriptase V106A (Human immunodeficiency virus type 1 group M subtype B, UniProt P03366, V705A). Described as above. Format: biochemical.
In series [5] the target is T5, HIV-1 reverse transcriptase Y181C (Human immunodeficiency virus type 1 group M subtype B, UniProt P03366, Y780C). The series is described as above. The format is biochemical.
Series [6] deals with T6, HIV-1 reverse transcriptase G190A (Human immunodeficiency virus type 1 group M subtype B, UniProt P03366, G789A). The series is described as above. The format is biochemical.
In series [7] the target is T7, HIV-1 reverse transcriptase K103N+Y181C (Human immunodeficiency virus type 1 group M subtype B, UniProt P03366, K702N/Y780C). The series is described as above. The format is biochemical. The conditions noted are these: From DMSO stock solution.
Series [8] has as its target T1, HIV-1 reverse transcriptase Wild type. Description: DNA-dependent DNA polymerization by recombinant HIV-1 RT. The conditions noted are these: From DMSO stock solution. Format: biochemical.
For series [9], the target named is T2, HIV-1 reverse transcriptase L100I. Described as above. The format is biochemical.
Series [10] addresses T3, HIV-1 reverse transcriptase K103N. The series is described as above. Format: biochemical.
Series [11] deals with T4, HIV-1 reverse transcriptase V106A. Described as above. The format is biochemical.
Series [12] addresses T5, HIV-1 reverse transcriptase Y181C. Described as above. The format is biochemical.
For series [13], the target named is T6, HIV-1 reverse transcriptase G190A. Described as above. Format: biochemical.
The target of series [14] is T7, HIV-1 reverse transcriptase K103N+Y181C. The description is as above. The format is biochemical. As to conditions: From DMSO stock solution.
Series [15] in a line: toxicity to cells, WST-1 test. Format: cell-based. The conditions noted are these: human. In general terms: Tetrazolium assays rely on reduction of a dye to a coloured formazan, in cell work by metabolically active cells.

Take `Cc1cc(C)cc(C(=O)c2cc(C)ccc2OCCn2ccc(=O)[nH]c2=O)c1` [Z007, 1-(2-(2-(3,5-dimethylbenzoyl)-4-methylphenoxy)ethyl)pyrimidine-2,4(1H,3H)-dione]: the IC50 (in general, the concentration that gives 50% inhibition) was 50 ± 20 µM in [1]; over 100 µM in series [2] (Complex with HC-PGC (M5P21OL)); 100 ± 30 µM in series [2] (From DMSO stock solution); over 100 µM in series [3] (Complex with HC-PGC (M5P21OL)); over 100 µM in series [3] (From DMSO stock solution); over 100 µM in series [4]. Also, the IC50 in [5] (Complex with HC-PGC (M5P21OL)) was over 100 µM; in [5] (From DMSO stock solution), over 100 µM; in series [6] (Complex with HC-PGC (M5P21OL)) it was over 100 µM; in series [6] (From DMSO stock solution), over 100 µM; in series [7] it was over 100 µM; in series [8], 40 ± 10 µM. Also, the half-maximal inhibitory concentration (IC50) in series [9] (Complex with HC-PGC (M5P21OL)), in series [9] (From DMSO stock solution), in series [10] (Complex with HC-PGC (M5P21OL)), in series [10] (From DMSO stock solution), in series [11] and in [12] (Complex with HC-PGC (M5P21OL)) was over 100 µM each time. In addition, the 50% inhibitory concentration (IC50) in series [12] (From DMSO stock solution), in [13] (Complex with HC-PGC (M5P21OL)), in series [13] (From DMSO stock solution) and in series [14] was over 100 µM throughout. Further, in [15], the 50% cytotoxic concentration (CC50) (as a rule, the concentration giving 50% cytotoxicity) at 4 h was over 50 µM.

As for `O=C(c1cc(Cl)cc(Cl)c1)c1cc(Br)ccc1OCCn1ccc(=O)[nH]c1=O` [Z011, 1-(2-(4-bromo-2-(3,5-dichlorobenzoyl)phenoxy)ethyl)pyrimidine-2,4(1H,3H)-dione], the 50% inhibitory concentration (IC50) in series [8] is 0.7 ± 0.1 µM; in series [9] (Complex with HC-PGC (M5P21OL)), over 100 µM; in series [9] (From DMSO stock solution) it was 1.8 ± 0.6 µM; in [10] (Complex with HC-PGC (M5P21OL)) it was over 100 µM; in series [10] (From DMSO stock solution), 6 ± 1 µM; in series [11], over 100 µM. Also, the IC50 in series [12] (Complex with HC-PGC (M5P21OL)) amounted to 22 ± 5 µM; in [12] (From DMSO stock solution) it was 1.4 ± 0.5 µM; in series [13] (Complex with HC-PGC (M5P21OL)), 2.6 ± 0.7 µM; in series [13] (From DMSO stock solution) it was 1.6 ± 0.3 µM; in series [14], 10 ± 3 µM. Also, in [15], the CC50 at 4 h is over 50 µM.

Take `Cc1cc(C)cc(C(=O)c2cc(Cl)ccc2OCCn2c3c(c(=O)[nH]c2=O)CCC3)c1` [Z107, 1-(2-(4-chloro-2-(3,5-dimethylbenzoyl)phenoxy)ethyl)-1,5,6,7-tetrahydro-2H-cyclopenta[d]pyrimidine-2,4(3H)-dione]: the 50% inhibitory concentration (IC50) was 3 ± 1 µM in series [1]; 15 ± 4 µM in series [2] (Complex with HC-PGC (M5P21OL)); 10 ± 3 µM in [2] (From DMSO stock solution); 100 ± 30 µM in series [3] (Complex with HC-PGC (M5P21OL)); 40 ± 10 µM in series [3] (From DMSO stock solution); over 100 µM in series [4]. Also, the IC50 in series [5] (Complex with HC-PGC (M5P21OL)) turned out to be 40 ± 10 µM; in series [5] (From DMSO stock solution), 5 ± 2 µM; in [6] (Complex with HC-PGC (M5P21OL)) it was 70 ± 20 µM; in [6] (From DMSO stock solution) it was 35 ± 10 µM; in series [7], 80 ± 30 µM; in series [8], 0.7 ± 0.2 µM. Also, the 50% inhibitory concentration (IC50) is 1.5 ± 0.2 µM in series [9] (Complex with HC-PGC (M5P21OL)); 3 ± 1 µM in [9] (From DMSO stock solution); 95 ± 15 µM in series [10] (Complex with HC-PGC (M5P21OL)); 70 ± 2 µM in series [10] (From DMSO stock solution); over 100 µM in series [11]; 1.9 ± 0.5 µM in series [12] (Complex with HC-PGC (M5P21OL)). Also, the half-maximal inhibitory concentration (IC50) in series [12] (From DMSO stock solution) worked out at 6 ± 2 µM; in series [13] (Complex with HC-PGC (M5P21OL)) it was 0.9 ± 0.3 µM; in [13] (From DMSO stock solution) it was 45 ± 15 µM; in [14] it was 50 ± 20 µM. In addition, the CC50 at 4 h in series [15] is over 50 µM.
